Laboratory results as given in patent US9260700B2 (priority 2011, dated 2016).

What was measured:
[1] = molecular target: Magnaporthe oryzae bilirubin oxidase (BOD), produced in Pichia pastoris, SEQ. ID. No.3 (SEQ. ID. No.1 with additional N-terminal serine) (Pyricularia oryzae, UniProt G4MQU0); type: biochemical; settings: 37° C., citrate-phosphate buffer 50 mM pH 3.6, bilirubin 0 to 100 μM
[2] = tested on: Myrothecium verrucaria bilirubin oxidase (BOD), produced in Pichia pastoris; settings: pH 6.5, with respect to ABTS; cited from earlier work

Row | Compound | Km [1] [µM] | kcat [1] [s⁻¹] | Km [2] [µM]
1 | conjugated bilirubin | 18.5 | 28 | 
2 | CCn1c(=NN=c2sc3cc(S(=O)(=O)O)ccc3n2CC)sc2cc(S(=O)(=O)O)ccc21 [ABTS, 2,2′-azino-bis(3-ethylbenzothiazoline-6-sulphonic acid)] |  |  | 340
